Experimental data from patent US20140135310A1, “SULPHONAMIDE DERIVATIVES OF ALICYCLIC AMINES FOR THE TREATMENT OF CENTRAL NERVOUS SYSTEM DISEASES” (Adamed Sp. z o.o., priority 2011, published 2014).

Tests used:
5-HT7 receptor = target: T1, 5-HT7 receptor (Homo sapiens, UniProt P34969); experiment: Radioligand binding assay, serotoninergic 5-HT7 receptors; conditions: binding assay result in %, Table 5a;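 also: test compound at 1 µM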
T1 construct: purchased PerkinElmer
Source text: (§1) The specific ligand binding to the receptors is defined as the difference between the total binding and the non-specific binding determined in the presence of the excess of unlabelled ligand.
(§2) The results are expressed as a percent of control specific binding ((measured specific binding/control specific binding)×100) and as a percent inhibition of control specific binding (100−((measured specific binding/control specific binding)×100)) obtained in the presence of the test compounds. The specific ligand binding to the receptors is defined as the difference between the total binding and the nonspecific binding determined in the presence of an excess of unlabelled ligand. Scintillation counting was the method of detection of ligand binding. The IC50 values (concentration causing a half-maximal inhibition of control specific binding) were determined by non-linear regression analysis of the competition curves generated with mean replicate values using Hill equation curve fitting (Y=D+[(A−D)/(1+(C/C50)nH)], where Y=specific binding, D=minimum specific binding, A=maximum specific binding, C=compound concentration, C50=IC50, and nH=slope factor). This analysis was performed using a software developed at Cerep (Hill software) and validated by comparison with data generated by the commercial software SigmaPlot® 4.0 for Windows® (© 1997 by SPSS Inc.). The inhibition constants (Ki) were calculated using the Cheng Prusoff equation (Ki=IC50/(1+(L/KD)), where L=concentration of radioligand in the assay, and KD=affinity of the radioligand for the receptor). A scatchard plot was used to determine the Kd.
(§3) Experimental conditions for tests are given in Table 4, and results of tests for representative compounds of the invention are given in Table 5a and 5b (receptors 5-HT1A, 5-HT2A, 5-HT6 and 5-HT7) and in Table 6 (receptors 5-HT2C).
5-HT7: Bryan L. Roth. Assay Protocol Book. University of North Carolina At Chapel Hill. National Institute of Mental Health. Psychoactive Drug Screening Program. Available on-line at 31 Aug. 2008: http://pdsp.med.unc.edu/UNC-CH %20Protocol%20Book.pdf

[1] = target: T2, 5-HT1A receptor (rat hippocampus) (Rattus norvegicus, UniProt P19327); experiment: Radioligand binding assay, serotoninergic 5-HT1A receptors; conditions: binding assay result in %, Table 5a;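 also: test compound at 1 µM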
T2 construct: hippocampus; from tissue; host or cells: rat hippocampus
T2 sequence (P19327 1-422): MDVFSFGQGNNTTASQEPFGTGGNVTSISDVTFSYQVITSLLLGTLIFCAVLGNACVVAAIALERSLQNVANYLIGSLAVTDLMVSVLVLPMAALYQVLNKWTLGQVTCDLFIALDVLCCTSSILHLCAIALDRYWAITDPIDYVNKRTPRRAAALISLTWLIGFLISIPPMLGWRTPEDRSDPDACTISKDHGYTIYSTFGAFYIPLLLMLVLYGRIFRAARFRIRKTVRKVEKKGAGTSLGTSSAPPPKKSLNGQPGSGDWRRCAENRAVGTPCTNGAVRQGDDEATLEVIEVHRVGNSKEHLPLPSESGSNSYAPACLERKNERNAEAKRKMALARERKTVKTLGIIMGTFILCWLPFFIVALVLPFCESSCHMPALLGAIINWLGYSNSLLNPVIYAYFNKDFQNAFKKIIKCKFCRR
Source text: as §1, §2, §3

[2] = target: dopaminergic receptors D3 (Homo sapiens, UniProt P35462); experiment: Radioligand binding assay, dopaminergic D3 receptors; conditions: test compound 1×10^−6 M
dopaminergic receptors D3, sequence (P35462 whole entry): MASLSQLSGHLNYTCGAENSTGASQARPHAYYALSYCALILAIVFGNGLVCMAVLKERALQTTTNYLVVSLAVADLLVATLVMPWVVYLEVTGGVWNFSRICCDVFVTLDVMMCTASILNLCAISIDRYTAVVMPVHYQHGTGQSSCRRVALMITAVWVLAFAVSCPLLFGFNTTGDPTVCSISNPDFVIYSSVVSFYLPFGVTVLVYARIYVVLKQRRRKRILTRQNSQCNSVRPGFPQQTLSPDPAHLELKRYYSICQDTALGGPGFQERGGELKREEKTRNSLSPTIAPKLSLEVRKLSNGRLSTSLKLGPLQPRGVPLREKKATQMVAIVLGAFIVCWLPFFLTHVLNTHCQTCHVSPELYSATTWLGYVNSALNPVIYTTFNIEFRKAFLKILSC
Source text: as §1, §2
(§4) Experimental conditions for tests are given in Table 1, the results of tests for representative compounds are given in Tables 2a and 2b (receptors D2 and D3) and in Table 3 (receptors D4).

[3] = target: dopaminergic receptors D2 (Homo sapiens, UniProt P14416); experiment: Radioligand binding assay, dopaminergic D2 receptors; conditions: binding assay, test compound 1×10^−6 M
dopaminergic receptors D2, sequence (P14416 whole entry): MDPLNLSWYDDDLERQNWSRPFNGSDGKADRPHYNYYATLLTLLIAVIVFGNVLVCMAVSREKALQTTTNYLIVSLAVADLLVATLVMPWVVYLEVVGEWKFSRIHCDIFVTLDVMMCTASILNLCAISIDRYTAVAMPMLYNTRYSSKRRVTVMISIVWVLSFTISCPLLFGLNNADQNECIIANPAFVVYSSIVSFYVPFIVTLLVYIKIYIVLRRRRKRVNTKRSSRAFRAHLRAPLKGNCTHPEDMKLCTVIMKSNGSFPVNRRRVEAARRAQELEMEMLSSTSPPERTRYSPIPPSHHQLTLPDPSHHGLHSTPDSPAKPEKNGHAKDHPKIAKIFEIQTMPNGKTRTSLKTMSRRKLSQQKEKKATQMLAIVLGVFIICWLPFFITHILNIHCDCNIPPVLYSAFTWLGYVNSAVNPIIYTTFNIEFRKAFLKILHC
Source text: as §1, §2, §4

[4] = target: T3, serotonin transporter (SERT) (Homo sapiens, UniProt P31645); experiment: Radioligand binding assay, serotonin transporter (SERT); conditions: binding assay, test compound 1×10^−6 M
T3 construct: expressed in transfected cells; host or cells: CHO cells
T3 sequence (P31645 whole entry): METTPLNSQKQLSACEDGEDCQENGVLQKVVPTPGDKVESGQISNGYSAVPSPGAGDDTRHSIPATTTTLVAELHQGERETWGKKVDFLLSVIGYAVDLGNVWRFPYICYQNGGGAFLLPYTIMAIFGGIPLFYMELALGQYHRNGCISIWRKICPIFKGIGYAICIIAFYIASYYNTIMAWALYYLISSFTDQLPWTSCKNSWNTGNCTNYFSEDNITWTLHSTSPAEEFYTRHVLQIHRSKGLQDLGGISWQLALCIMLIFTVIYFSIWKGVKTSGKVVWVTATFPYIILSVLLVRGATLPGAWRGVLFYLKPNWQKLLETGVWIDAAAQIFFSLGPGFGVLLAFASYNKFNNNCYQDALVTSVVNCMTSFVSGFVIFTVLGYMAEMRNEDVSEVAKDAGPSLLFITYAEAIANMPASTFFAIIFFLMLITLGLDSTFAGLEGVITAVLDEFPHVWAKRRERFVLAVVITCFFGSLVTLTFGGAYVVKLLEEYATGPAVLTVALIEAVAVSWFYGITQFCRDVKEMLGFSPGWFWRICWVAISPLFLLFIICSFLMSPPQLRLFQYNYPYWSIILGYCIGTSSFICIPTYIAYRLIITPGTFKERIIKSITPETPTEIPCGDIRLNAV
Source text: as §1, §2
Experimental conditions for tests are given in Table 12, and results of tests for representative compounds are given in Tables 13a and 13b.

5-HT6 receptor = target: T4, 5-HT6 receptor (Homo sapiens, UniProt P50406); experiment: Radioligand binding assay, serotoninergic 5-HT6 receptors; conditions: binding assay result in %, Table 5a;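 also: test compound at 1 µM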
T4 construct: purchased PerkinElmer
T4 sequence (P50406 whole entry): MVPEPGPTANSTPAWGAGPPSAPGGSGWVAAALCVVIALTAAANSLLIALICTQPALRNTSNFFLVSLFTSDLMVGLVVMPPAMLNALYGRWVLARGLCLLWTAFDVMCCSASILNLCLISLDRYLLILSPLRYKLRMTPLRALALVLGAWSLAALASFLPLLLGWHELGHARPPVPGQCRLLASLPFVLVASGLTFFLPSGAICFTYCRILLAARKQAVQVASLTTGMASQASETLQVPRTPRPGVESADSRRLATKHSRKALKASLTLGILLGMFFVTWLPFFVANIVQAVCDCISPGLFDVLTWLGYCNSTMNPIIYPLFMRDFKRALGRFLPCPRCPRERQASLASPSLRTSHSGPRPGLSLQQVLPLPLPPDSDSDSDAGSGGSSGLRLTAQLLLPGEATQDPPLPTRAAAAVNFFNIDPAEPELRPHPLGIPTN
Source text: as §1, §2, §3
5-HT6: Bryan L. Roth. Assay Protocol Book. University of North Carolina At Chapel Hill. National Institute of Mental Health. Psychoactive Drug Screening Program. Available on-line at 31 Aug. 2008: http://pdsp.med.unc.edu/UNC-CH %20Protocol%20Book.pdf

5-HT2A receptor = target: T5, 5-HT2A receptor (Homo sapiens, UniProt P28223); experiment: Radioligand binding assay, serotoninergic 5-HT2A receptors; conditions: binding assay result in %, Table 5a
T5 construct: purchased PerkinElmer
T5 sequence (P28223 whole entry): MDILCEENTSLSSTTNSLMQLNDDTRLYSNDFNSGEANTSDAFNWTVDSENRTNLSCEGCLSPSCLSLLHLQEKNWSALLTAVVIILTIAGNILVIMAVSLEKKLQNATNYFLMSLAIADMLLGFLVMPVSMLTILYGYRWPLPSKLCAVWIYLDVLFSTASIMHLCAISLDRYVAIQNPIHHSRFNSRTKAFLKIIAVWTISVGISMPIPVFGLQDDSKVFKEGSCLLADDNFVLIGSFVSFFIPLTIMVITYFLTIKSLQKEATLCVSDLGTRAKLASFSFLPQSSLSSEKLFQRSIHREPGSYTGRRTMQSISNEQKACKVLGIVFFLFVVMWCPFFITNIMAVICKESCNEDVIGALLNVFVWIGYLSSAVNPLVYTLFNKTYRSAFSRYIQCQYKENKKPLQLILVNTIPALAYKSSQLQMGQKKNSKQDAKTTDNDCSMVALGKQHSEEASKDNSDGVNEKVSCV
Source text: as §1, §2
5-HT2A: Bryan L. Roth. Assay Protocol Book. University of North Carolina At Chapel Hill. National Institute of Mental Health. Psychoactive Drug Screening Program. Available on-line at 31 Aug. 2008: http://pdsp.med.unc.edu/UNC-CH%20Protocol%20Book.pdf

T1 sequence (P34969 whole entry): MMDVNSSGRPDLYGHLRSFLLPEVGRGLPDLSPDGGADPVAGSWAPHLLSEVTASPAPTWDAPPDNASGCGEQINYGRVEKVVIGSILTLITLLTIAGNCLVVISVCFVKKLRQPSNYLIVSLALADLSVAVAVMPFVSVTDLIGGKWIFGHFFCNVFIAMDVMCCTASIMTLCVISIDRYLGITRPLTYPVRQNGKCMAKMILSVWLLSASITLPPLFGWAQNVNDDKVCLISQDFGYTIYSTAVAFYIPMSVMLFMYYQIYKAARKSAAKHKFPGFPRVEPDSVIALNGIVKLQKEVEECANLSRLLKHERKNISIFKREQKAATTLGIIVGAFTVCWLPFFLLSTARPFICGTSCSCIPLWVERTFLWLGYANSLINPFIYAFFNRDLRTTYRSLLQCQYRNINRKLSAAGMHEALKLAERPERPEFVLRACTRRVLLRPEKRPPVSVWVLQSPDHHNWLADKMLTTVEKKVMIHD

Compound	inhibition at 1 µM (5-HT7 receptor) [%]	inhibition at 1 µM [1] [%]	inhibition at 1 µM [2] [%]	inhibition at 1 µM [3] [%]	inhibition at 1 µM [4] [%]	inhibition at 1 µM (5-HT6 receptor) [%]	inhibition at 1 µM (5-HT2A receptor) [%]	5-HT7 [%] (5-HT7 receptor)	5-HT1A [%] [1] [%]	D3 [%] [2] [%]	D2 [%] [3] [%]	SERT [%] [4] [%]	5-HT6 [%] (5-HT6 receptor)	5-HT2A [%] (5-HT2A receptor)
O=S(=O)(NCC1CCN(CCCc2noc3cc(F)ccc23)C1)c1ccc2c(c1)CCO2 (stereo not drawn) [Compound 256, N-[[1-[3-(6-Fluoro-1,2-benzoxazol-3-yl)propyl]pyrrolidin-3-yl]methyl]-2,3-dihydrobenzofuran-5-sulphonamide]	92	29	25	37	40	74	87	–	–	–	–	–	–	–
Cc1cccc(S(=O)(=O)NC2CCN(CCCc3noc4cc(F)ccc34)CC2)c1 [Compound 33, N-[1-[3-(6-Fluoro-1,2-benzoxazol-3-yl)propyl]-4-piperidine]-3-methyl-benzenesulphonamide]	–	–	–	–	–	–	–	100	22	58	54	−4	91	97
Cn1ccc2c(S(=O)(=O)NC3CCN(CCCc4noc5cc(F)ccc45)C3)cccc21 (stereo not drawn) [Compound 219, N-[1-[3-(6-Fluoro-1,2-benzoxazol-3-yl)propyl]pyrrolidin-3-yl]-1-methyl-indole-4-sulphonamide]	96	85	81	96	52	94	99	–	–	–	–	–	–	–
O=S(=O)(NCC1CN(CCCc2noc3cc(F)ccc23)C1)c1ccc(Cl)cc1 [Compound 136, 4-Chloro-N-[[1-[3-(6-fluoro-1,2-benzoxazol-3-yl)propyl]azetidin-3-yl]methyl]benzenesulphonamide]	80	35	57	62	9	72	82	–	–	–	–	–	–	–
O=S(=O)(NCC1CCN(CCCc2noc3cc(F)ccc23)C1)c1ccc(F)c(Cl)c1 (stereo not drawn) [Compound 263, 3-Chloro-4-fluoro-N-[[1-[3-(6-fluoro-1,2-benzoxazol-3-yl)propyl]pyrrolidin-3-yl]methyl]benzenesulphonamide]	92	19	71	59	11	85	97	–	–	–	–	–	–	–
Cc1cc(S(=O)(=O)NCC2CCN(CCCc3noc4cc(F)ccc34)C2)c(C)s1 (stereo not drawn) [Compound 262, N-[[1-[3-(6-Fluoro-1,2-benzoxazol-3-yl)propyl]pyrrolidin-3-yl]methyl]-2,5-dimethyl-thiophene-3-sulphonamide]	92	25	44	26	26	69	85	–	–	–	–	–	–	–
O=S(=O)(NCC1CN(CCCc2noc3cc(F)ccc23)C1)c1cc2ccccc2s1 [Compound 153, N-[[1-[3-(6-Fluoro-1,2-benzoxazol-3-yl)propyl]azetidin-3-yl]methyl]-benzothiophene-2-sulphonamide]	86	55	61	82	–	80	96	–	–	–	–	21	–	–
O=S(=O)(NCC1CCN(CCCc2noc3cc(F)ccc23)C1)c1cccc(O)c1 (stereo not drawn) [Compound 254, N-[[1-[3-(6-Fluoro-1,2-benzoxazol-3-yl)propyl]pyrrolidin-3-yl]methyl]-3-hydroxy-benzenesulphonamide]	102	49	34	75	10	78	98	–	–	–	–	–	–	–
Cn1ccc2c(S(=O)(=O)NCC3CCN(CCCc4noc5cc(F)ccc45)C3)cccc21 (stereo not drawn) [Compound 259, N-[[1-[3-(6-Fluoro-1,2-benzoxazol-3-yl)propyl]pyrrolidin-3-yl]methyl]-1-methyl-indole-4-sulphonamide]	91	42	61	84	-5	92	100	–	–	–	–	–	–	–
CC(C)(C)c1ccc(S(=O)(=O)NCC2CN(CCCc3noc4cc(F)ccc34)C2)cc1 [Compound 141, 4-tert-Butyl-N-[[1-[3-(6-fluoro-1,2-benzoxazol-3-yl)propyl]azetidin-3-yl]methyl]benzenesulphonamide]	80	9	58	74	-10	92	85	–	–	–	–	–	–	–
3-tert-Butyl-N-[[1-[3-(6-fluoro-1,2-benzoxazol-3-yl)propyl]pyrrolidin-3-yl]methyl]benzenesulphonamide [Compound 249]	–	–	–	–	–	–	–	87	23	36	4	28	58	79
O=S(=O)(NCC1CCN(CCCc2noc3cc(F)ccc23)C1)c1ccccc1 (stereo not drawn) [Compound 245, N-[[1-[3-(6-Fluoro-1,2-benzoxazol-3-yl)propyl]pyrrolidin-3-yl]methyl]benzenesulphonamide]	81	35	40	-4	18	57	73	–	–	–	–	–	–	–
O=S(=O)(NCC1CCN(CCCc2noc3cc(F)ccc23)C1)c1ccc2c(c1)OCO2 (stereo not drawn) [Compound 235, N-[[1-[3-(6-Fluoro-1,2-benzoxazol-3-yl)propyl]pyrrolidin-3-yl]methyl]-1,3-benzodioxole-5-sulphonamide]	81	14	41	31	11	62	91	–	–	–	–	–	–	–
O=S(=O)(NCC1CCN(CCCc2noc3cc(F)ccc23)C1)c1csc2ccccc12 (stereo not drawn) [Compound 261, N-[[1-[3-(6-Fluoro-1,2-benzoxazol-3-yl)propyl]pyrrolidin-3-yl]methyl]-benzothiophene-3-sulphonamide]	104	78	65	88	3	97	101	–	–	–	–	–	–	–
CC(C)(C)c1ccc(S(=O)(=O)NC2CCN(CCCc3noc4cc(F)ccc34)C2)cc1 (stereo not drawn) [Compound 14, 4-tert-Butyl-N-[1-[3-(6-fluoro-1,2-benzoxazol-3-yl)propyl]pyrrolidin-3-yl]benzenesulphonamide]	76	24	90	100	-3	82	80	–	–	–	–	–	–	–
